Results on 16 compounds are retold here after EPA's ToxValDB 9.5.

The subject of one data set is Mus musculus. Conditions: short-term, duration: 28 days, oral, gavage, F, B6C3F1.
Data set [1] relates to Rattus norvegicus. The conditions noted are these: subchronic, duration: 56 days, oral, diet, M, Sprague-Dawley.
Data set [2] concerns Rattus norvegicus. The conditions noted are these: acute, oral.
For data set [3], the system named is Rattus norvegicus. The conditions noted are these: oral.
The mark [4] stands for this setting: Liver: Liver Weight, Relative + Thymus: CD8+ Cell Count.
Where [5] appears, read: Spleen: Spleen Weight, Relative + Whole Body: Body Weight Change.
Where [6] appears, read: subchronic, gavage, M, Sprague-Dawley.

Values joined by “and” are separate entries in the source; they are usually repeats but may differ in a detail not shown here. Identical values can stand only once.

Consider `CCNS(=O)(=O)C(F)(F)C(F)(F)C(F)(F)C(F)(F)C(F)(F)C(F)(F)C(F)(F)C(F)(F)F` [N-Ethylperfluorooctanesulfonamide], for which the LEL in the data set on Mus musculus (setting [4]) is 1 mg/kg-day; in the data set on Mus musculus (Spleen: Plaque Forming Cell (PFC) Response + Uterus: Uterus Weight, Relative), 0.3 mg/kg-day; in the data set with Mus musculus (setting [5]) it was 10 mg/kg-day; with Rattus norvegicus [1] (Whole Body: Body Weight Change) it was 6.82 mg/kg-day and 5.7 mg/kg-day. Further, the NEL with Mus musculus (setting [4]) is 0.3 mg/kg-day; in the data set with Mus musculus (Spleen: B Cell Proliferation + Spleen: B220+ Cell Count + Spleen: CD4-/CD8- Cell Count + Spleen: CD4+ Cell Count + Spleen: CD4+/CD8+ Cell …), 10 mg/kg-day; in the data set on Mus musculus (setting [5]), 3 mg/kg-day; in the data set with Rattus norvegicus [1] (Whole Body: Clinical Observations), 6.82 mg/kg-day and 5.7 mg/kg-day.
One may read the LD50 as the dose expected to kill half of the subjects tested. The NOAEL is the highest tested level that showed no adverse finding. Compound `CCC(C)(C)c1ccc(O)c(C(C)(C)CC)c1` [2,4-Di-tert-pentylphenol] came in with an LD50 with Rattus norvegicus [2] (Sprague-Dawley) of 920 mg/kg. Further, the NOAEL with Rattus norvegicus [3] (subchronic, gavage, M, Sprague-Dawley, Deaths + Clinical Observation: Salivation/100 Soft feces/100 + Body Weight Changes: Body weight gain decrease + Urinalysis: Volume increase…) came out at 10 mg/kg-day.
For `CCCCCCCCCCCCCCCCCC(=O)OCCOC(=O)CCCCCCCCCCCCCCCCC` [Octadecanoic acid, 1,2-ethanediyl ester], the LD50 with Rattus norvegicus [2] (gavage) was over 10000 mg/kg. In the data set with Rattus norvegicus [3] (setting [6]), this compound displayed an NOAEL of 1000 mg/kg-day and an NOEL of 1000 mg/kg-day.
Regarding `CCC(C)c1cc(C(C)(C)C)c(O)c(C(C)(C)C)c1` (stereo not given) [4-(Butan-2-yl)-2,6-di-tert-butylphenol], the LC50 in the data set on Rattus norvegicus [2] (Sprague-Dawley) turned out to be 4800 mg/kg. The NOEL is under 15 mg/kg-day with Rattus norvegicus [3] (short-term, duration: 28 days, gavage, F, Sprague-Dawley, Clinical Observation: Soft feces + Urinalysis: pH decrease + Hematology: PT increase, APTT increase + Blood Chemistry: T-CHO increase, T-BIL…) and 15 mg/kg-day in the data set on Rattus norvegicus [3] (short-term, duration: 28 days, gavage, M, Sprague-Dawley, Clinical Observation: Soft feces + Urinalysis: pH decrease + Hematology: PT increase, APTT increase + Blood Chemistry: T-CHO increase, T-BIL…).
Regarding `CC(C)(C)S` [t-Butyl mercaptan], the NOEL with Rattus norvegicus [3] (subchronic, gavage, M, CD(SD), Clinical Observation: Salivation + Body Weight Changes: decrease + Food Consumption: decrease + Hematology: RBC decrease, HGB decrease, HCT …) is under 10 mg/kg-day; with Rattus norvegicus [3] (subchronic, gavage, M, Sprague-Dawley, Body Weight Changes: decrease200 + Hematology: MCHC decrease, APTT increase, RBC decrease, Hgb decrease, Hct decrease, Plt increase, PT …), under 10 mg/kg-day.
Turning to `OCc1ccccc1` [Benzyl alcohol], in the data set on Rattus norvegicus [3] (subchronic, duration: 13 weeks, gavage, M/F, Fischer 344, Deaths + Clinical Observation: Died Staggering Labored breathing Blood around nose and mouth + Body Weight Changes: decrease + …), the NOEL came out at 200 mg/kg-day.
For the compound `Cc1ncc[nH]1` [2-Methylimidazole], in the data set with Rattus norvegicus [3] (subchronic, diet, M/F, Fischer 344, Body Weight Changes: decrease + Food Consumption: decrease + Hematology: Plt increase, Hct decrease, Hgb decrease, RBC decrease, Ret …), the NOEL was under 60 mg/kg-day.
Take `Clc1ccccc1NNc1ccccc1Cl` [1,2-Bis(2-chlorophenyl)hydrazine]: the NOEL with Rattus norvegicus [3] (subchronic, gavage, M, Sprague-Dawley, Body Weight Changes: decrease(trend) + Hematology: Hgb decrease, RET increase(trend) + Blood Chemistry: T-CHO increase(trend) + Relative …) worked out at 40 mg/kg-day.
Regarding `COc1cc(COC(=O)CCCCCCC(C)C)ccc1O` [Dihydrocapsiate], the NOEL in the data set on Rattus norvegicus [3] (subchronic, gavage, M/F, Crj:CD, Blood Chemistry: ALT increase, Ca increase, Alb increase, TP increase + Absolute Organ Weight: Liver increase + Relative Organ Weight: Liver…) was found to be 300 mg/kg-day.
Consider `NNC(N)=S` [Thiosemicarbazide], for which the NOEL in the data set with Rattus norvegicus [3] (subchronic, gavage, M, Sprague-Dawley, Functional Observational Battery: Tonic convulsion Hypersensitive reaction in touch response and tail pinch response + Body Weight Changes: …) worked out at 0.4 mg/kg-day.
On to `C=COCC(CC)CCCC` (stereo not given) [1-Ethenoxy-2-ethylhexane], for which, in the data set on Rattus norvegicus [3] (short-term, duration: 28 days, gavage, M/F, Sprague-Dawley, Urinalysis: Occult blood increase + Blood Chemistry: ALP increase, Cho increase, PL increase + Relative Organ Weight: Liver increase, …), the NOEL was found to be 8 mg/kg-day.
Regarding `COc1cccc(OC)c1C(=O)P(=O)(CC(C)CC(C)(C)C)C(=O)c1c(OC)cccc1OC` (stereo not given), in the data set with Rattus norvegicus [3] (short-term, duration: 28 days, gavage, M/F, Blood Chemistry: CHE decrease + Absolute Organ Weight: Liver increase + Histopathology: Skin-Proliferation, epidermis, horny layer Skin-…), the NOEL turned out to be 5 mg/kg-day.
On to `COC(=O)C(c1ccccc1)C1CCCCN1.Cl` (stereo not given) [Methylphenidate hydrochloride], for which the NOEL in the data set with Rattus norvegicus [3] (subchronic, duration: 13 weeks, diet, F, Fischer 344, Body Weight Changes: decrease + Food Consumption: decrease + Absolute Organ Weight: Brain increase, Liver increase + Relative Organ Weight: …) was determined as 18 mg/kg-day; in the data set on Rattus norvegicus [3] (subchronic, duration: 13 weeks, diet, M/F, Fischer 344, Body Weight Changes: decrease + Food Consumption: decrease + Absolute Organ Weight: Brain increase, Liver increase + Relative Organ Weight: …), 24 mg/kg-day.
As for `CCCCCCC[CH2][Sn]([CH2]CCCCCCC)([S]CC(=O)OCC(CC)CCCC)[S]CC(=O)OCC(CC)CCCC` (stereo not given) [Dioctyltinbis(2-ethylhexyl mercaptoacetate)], the NOAEL in the data set with Rattus norvegicus [3] (subchronic, duration: 90 days, diet, M/F, Wistar, Deaths + Body Weight Changes: Mean body weight decrease + Food Consumption: decrease + Urinalysis: SG decrease, GOT increase + Hematology: …) came to 0.96 mg/kg-day.
Regarding `C=CCOC(=O)CC(C)C` [Allyl isovalerate], the NOEL in the data set with Rattus norvegicus [3] (subchronic, duration: 13 weeks, gavage, M/F, Fischer 344, Deaths + Body Weight Changes: decrease + Histopathology: Liver-Basophilic cytoplasmic change Liver-Multifocal coagulative necrosis Liver-…) stood at 31 mg/kg-day.
Turning to `CCOCCc1ccc(OCC(OC)OC)c(C)c1C`, the NOEL in the data set with Rattus norvegicus [3] (short-term, duration: 28 days, gavage, M/F, Clinical Observation: Salivation Locomotor activity decrease + Blood Chemistry: GOT increase, GPT increase, gamma-GTP increase, T-CHO …) is under 40 mg/kg-day.
